This is an account of results in patent US9725449B2, “Tricyclic compounds as anticancer agents” (BRISTOL-MYERS SQUIBB COMPANY, priority 2015, dated 2017).

Where only a bound is given, the exact number is not on record here.

For this experiment, the target named is BRD4 (Homo sapiens, UniProt O60885). The experiment can be described thus: Time resolved fluorescence resonance energy transfer (TR-FRET) binding assay, bromodomain BRD4. Conditions: one of the FRET assays described; read-out: FRET BRD4 IC50.
Broadly, the IC50 is the midpoint of a concentration-inhibition curve. Regarding `[2H]C([2H])([2H])c1nnn(C)c1-c1cnc2c3c(OC)ncc(S(C)(=O)=O)c3n(C(c3ccc(F)cc3)C3CCC(F)(F)CC3)c2c1` (stereo in doubt) [Example 96, 8-[(R)-(4,4-Difluorocyclohexyl)(4-fluorophenyl)methyl]-10-methanesulfonyl-13-methoxy-5-[4-(^2H3)methyl-1-methyl-1H-1,2,3-triazol-5-yl]-3,8,12-triazatricyclo[7.4.0.0^2,^7]trideca-1(13),2(7),3,5,9,11-hexaene], the half-maximal inhibitory concentration (IC50) is < 1.5 µM.

`Cc1noc(C)c1-c1cnc2c3c(NS(C)(=O)=O)ncc(S(C)(=O)=O)c3n([C@H](c3ccccc3)C3CCOCC3)c2c1` [Example 102, N-[5-(Dimethyl-1,2-oxazol-4-yl)-10-methanesulfonyl-8-[(S)-oxan-4-yl(phenyl)methyl]-3,8,12-triazatricyclo[7.4.0.0^2,^7]trideca-1(13),2(7),3,5,9,11-hexaen-13-yl]methanesulfonamide]: the IC50 is < 0.01 µM.

As for `Cc1nnn(C)c1-c1cnc2c3c(Cl)ncc(Cl)c3n([C@H](c3ccccc3)C3CCOCC3)c2c1` [Example 36, 10,13-Dichloro-5-(dimethyl-1H-1,2,3-triazol-5-yl)-8-[(S)-oxan-4-yl(phenyl)methyl]-3,8,12-triazatricyclo[7.4.0.0^2,^7]trideca-1(13),2(7),3,5,9,11-hexaene], the IC50 was < 0.01 µM.

In the case of `[2H]C([2H])([2H])c1nnn(C)c1-c1cnc2c3ccc(-c4c(C([2H])([2H])[2H])nnn4C)nc3n([C@H](c3ccccc3F)C3CCOCC3)c2c1` [Example 232, 8-[(S)-(2-Fluorophenyl)(oxan-4-yl)methyl]-5,11-bis[4-(^2H3)methyl-1-methyl-1H-1,2,3-triazol-5-yl]-3,8,10-triazatricyclo[7.4.0.0^2,^7]trideca-1(13),2(7),3,5,9,11-hexaene], the IC50 was < 0.01 µM.

Regarding “2-{11-Chloro-5-[4-(^2H3)methyl-1-methyl-1H-1,2,3-triazol-5-yl]-8-[(S)-oxan-4-yl(phenyl)methyl]-3,8,12-triazatricyclo[7.4.0.0^2,^7]trideca-1(13),2(7),3,5,9,11-hexaen-13-yl}propan-2-ol [Example 293]”, the IC50 is < 0.01 µM.

For the compound `[2H]C([2H])([2H])c1nnn(C)c1-c1cnc2c3c(OC)ncc(S(C)(=O)=O)c3n(C(c3c(F)cc(F)cc3F)C3CCOCC3)c2c1` (single isomer, unassigned) [Example 84, 10-Methanesulfonyl-13-methoxy-5-[4-(^2H3)methyl-1-methyl-1H-1,2,3-triazol-5-yl]-8-[oxan-4-yl(2,4,6-trifluorophenyl)methyl]-3,8,12-triazatricyclo[7.4.0.0^2,^7]trideca-1(13),2(7),3,5,9,11-hexaene], the half-inhibitory concentration (IC50) is < 1.5 µM.

For the compound `Cc1nnn(C)c1-c1cnc2c3cncc(S(C)(=O)=O)c3n(C(c3ccccc3)C3CCC(F)(F)CC3)c2c1` (stereo not drawn) [Example 290, 8-[(4,4-Difluorocyclohexyl)(phenyl)methyl]-5-(dimethyl-1H-1,2,3-triazol-5-yl)-10-methanesulfonyl-3,8,12-triazatricyclo[7.4.0.0^2,^7]trideca-1(13),2(7),3,5,9,11-hexaene], the IC50 was < 0.001 µM.

For `[2H]C([2H])([2H])c1nnn(C)c1-c1cnc2c3cnc(S(C)(=O)=O)cc3n([C@H](c3ccccc3)C3CCOCC3)c2c1` [Example 201, 11-Methanesulfonyl-5-[4-(^2H3)methyl-1-methyl-1H-1,2,3-triazol-5-yl]-8-[(S)-oxan-4-yl(phenyl)methyl]-3,8,12-triazatricyclo[7.4.0.0^2,^7]trideca-1(9),2(7),3,5,10,12-hexaene], the IC50 was < 0.01 µM.

As to `[2H]C([2H])([2H])c1nnn(C)c1-c1cnc2c3ccc(Cl)nc3n(C(c3ccccc3)C3CCC(F)(F)CC3)c2c1` (stereo not drawn) [Example 259, 11-Chloro-8-[(4,4-difluorocyclohexyl)(phenyl)methyl]-5-[4-(^2H3)methyl-1-methyl-1H-1,2,3-triazol-5-yl]-3,8,10-triazatricyclo[7.4.0.0^2,^7]trideca-1(13),2(7),3,5,9,11-hexaene], the 50% inhibitory concentration (IC50) is < 1.5 µM.

Regarding `Cc1nnn(C)c1-c1cnc2c3ccc(C#N)nc3n([C@H](c3ccccc3)C3CCOCC3)c2c1` [Example 169, 5-(Dimethyl-1H-1,2,3-triazol-5-yl)-8-[(S)-oxan-4-yl(phenyl)methyl]-3,8,10-triazatricyclo[7.4.0.0^2,^7]trideca-1(9),2(7),3,5,10,12-hexaene-11-carbonitrile], the IC50 was < 0.01 µM.

For the compound `[2H]C([2H])([2H])c1nnn(C)c1-c1cnc2c3cnc(C(C)(C)O)cc3n(C(CCC)c3ncccc3F)c2c1` (stereo not drawn) [Example 359, 2-{8-[1-(3-Fluoropyridin-2-yl)butyl]-5-[4-(^2H3)methyl-1-methyl-1H-1,2,3-triazol-5-yl]-3,8,12-triazatricyclo[7.4.0.0^2,^7]trideca-1(13),2(7),3,5,9,11-hexaen-11-yl}propan-2-ol], the IC50 is < 0.01 µM.

As for `CCCC(c1ncccc1F)n1c2cc(-c3c(C)nnn3C)ncc2c2ncc(C(C)(C)O)cc21` (single isomer, unassigned) [Example 370], the 50% inhibitory concentration (IC50) is < 0.01 µM.

With `[2H]C([2H])([2H])c1nnn(C)c1-c1cnc2c3c(NCC(F)(F)F)cncc3n(C(c3ncccc3F)C3CCOCC3)c2c1` (stereo not drawn) [Example 304, 8-[(3-Fluoropyridin-2-yl)(oxan-4-yl)methyl]-5-[4-(^2H3)methyl-1-methyl-1H-1,2,3-triazol-5-yl]-N-(2,2,2-trifluoroethyl)-3,8,11-triazatricyclo[7.4.0.0^2,^7]trideca-1(9),2(7),3,5,10,12-hexaen-13-amine], the concentration for half-maximal inhibition (IC50) was < 0.01 µM.

For the compound `Cc1nnn(C)c1-c1cnc2c3ccc(-c4c(C)nnn4C)nc3n([C@@H](c3ccccc3)C3CCOCC3)c2c1` [Example 164, 5,11-Bis(dimethyl-1H-1,2,3-triazol-5-yl)-8-[(R)-oxan-4-yl(phenyl)methyl]-3,8,10-triazatricyclo[7.4.0.0^2,^7]trideca-1(9),2(7),3,5,10,12-hexaene], the IC50 is < 0.01 µM.

`[2H]C([2H])([2H])c1nnn(C)c1-c1cnc2c3c(N[C@@H](C)C4CC4)ncc(S(C)(=O)=O)c3n([C@H](c3ccccc3)C3CCOCC3)c2c1` [Example 113, N-[(1S)-1-Cyclopropylethyl]-10-methanesulfonyl-5-[4-(^2H3)methyl-1-methyl-1H-1,2,3-triazol-5-yl]-8-[(S)-oxan-4-yl(phenyl)methyl]-3,8,12-triazatricyclo[7.4.0.0^2,^7]trideca-1(13),2(7),3,5,9,11-hexaen-13-amine]: the IC50 is < 0.001 µM.

Turning to `Cc1nnn(C)c1-c1cnc2c3cnc(Cl)cc3n(C(c3ncccc3F)C3CCOCC3)c2c1` (single isomer, unassigned) [Example 318], the concentration for half-maximal inhibition (IC50) was < 0.01 µM.

For `CCN(CCN(C)C)c1ccc2c3ncc(-c4c(OC)nnn4C)cc3n([C@H](c3ccccc3F)C3CCOCC3)c2n1` [Example 257, N-[2-(Dimethylamino)ethyl]-N-ethyl-8-[(S)-(2-fluorophenyl)(oxan-4-yl)methyl]-5-(4-methoxy-1-methyl-1H-1,2,3-triazol-5-yl)-3,8,10-triazatricyclo[7.4.0.0^2,^7]trideca-1(13),2(7),3,5,9,11-hexaen-11-amine], the IC50 was < 0.001 µM.

Take `COc1nccc2c3ncc(-c4c(C)nnn4C)cc3n(C(c3ccccc3F)C3CCOCC3)c12` (single isomer, unassigned) [Example 18, 5-(Dimethyl-1H-1,2,3-triazol-5-yl)-8-[(2-fluorophenyl)(oxan-4-yl)methyl]-10-methoxy-3,8,11-triazatricyclo[7.4.0.0^2,^7]trideca-1(13),2(7),3,5,9,11-hexaene]: the IC50 was < 0.01 µM.

With `COc1nnn(C)c1-c1cnc2c3ccc(-c4c(OC)nnn4C)nc3n([C@H](c3ccccc3)C3CCOCC3)c2c1` [Example 166, 5,11-Bis(4-methoxy-1-methyl-1H-1,2,3-triazol-5-yl)-8-[(S)-oxan-4-yl(phenyl)methyl]-3,8,10-triazatricyclo[7.4.0.0^2,^7]trideca-1(9),2(7),3,5,10,12-hexaene], the IC50 is < 0.01 µM.

As for `C=C(C)c1ccc2c3ncc(-c4c(C)nnn4C)cc3n([C@H](c3ccccc3)C3CCOCC3)c2n1` [Example 161, 5-(Dimethyl-1H-1,2,3-triazol-5-yl)-8-[(S)-oxan-4-yl(phenyl)methyl]-11-(prop-1-en-2-yl)-3,8,10-triazatricyclo[7.4.0.0^2,^7]trideca-1(9),2(7),3,5,10,12-hexaene], the IC50 was < 0.01 µM.

In the case of `[2H]C([2H])([2H])c1nnn(C)c1-c1cnc2c3c(OC)ncc(S(C)(=O)=O)c3n(C(c3ncccc3F)C3CCC(F)(F)CC3)c2c1` (stereo not drawn) [Example 72, 8-[(4,4-Difluorocyclohexyl)(3-fluoropyridin-2-yl)methyl]-10-methanesulfonyl-13-methoxy-5-[4-(^2H3)methyl-1-methyl-1H-1,2,3-triazol-5-yl]-3,8,12-triazatricyclo[7.4.0.0^2,^7]trideca-1(13),2(7),3,5,9,11-hexaene], the IC50 is < 0.01 µM.

In the case of `[2H]C([2H])([2H])c1nnn(C)c1-c1cnc2c3c(OCC(F)(F)F)cncc3n([C@H](c3ccccc3)C3CCOCC3)c2c1` [Example 301, 5-[4-(^2H3)Methyl-1-methyl-1H-1,2,3-triazol-5-yl]-8-[(S)-oxan-4-yl(phenyl)methyl]-13-(2,2,2-trifluoroethoxy)-3,8,11-triazatricyclo[7.4.0.0^2,^7]trideca-1(9),2(7),3,5,10,12-hexaene], the IC50 was < 0.001 µM.

Consider `Cc1nnn(C)c1-c1cnc2c3ccc(N4CCS(=O)(=O)CC4C)nc3n([C@H](c3ccccc3)C3CCOCC3)c2c1` (stereo partly drawn) [Example 210, 4-[5-(Dimethyl-1H-1,2,3-triazol-5-yl)-8-[(S)-oxan-4-yl(phenyl)methyl]-3,8,10-triazatricyclo[7.4.0.0^2,^7]trideca-1(9),2(7),3,5,10,12-hexaen-11-yl]-3-methyl-1λ^6,4-thiomorpholine-1,1-dione], for which the IC50 was < 0.01 µM.

With `COc1ncc(C(C)(C)O)c2c1c1ncc(-c3c(C)noc3C)cc1n2[C@H](c1ccccc1)C1CCOCC1` [Example 141, 2-[5-(Dimethyl-1,2-oxazol-4-yl)-13-methoxy-8-[(S)-oxan-4-yl(phenyl)methyl]-3,8,12-triazatricyclo[7.4.0.0^2,^7]trideca-1(9),2,4,6,10,12-hexaen-10-yl]propan-2-ol], the IC50 was < 0.01 µM.
